Assay results as given in patent publication US20170007568A1, “USE OF COMPOSITION CONTAINING IRON (II) AMINO ACID CHELATE IN PREPARATION OF DRUG FOR AMELIORATING DIABETES” (PROFEAT BIOTECHNOLOGY CO., LTD., priority 2014, published 2017).

Experiments:
Assay type in all cases: in vivo, C57BL/6JNR male mice
[1] = tested on: type 2 diabetes mice (nicotinamide/streptozotocin + high fat diet); test: Fasting blood glucose of drug-induced diabetic mice; conditions: dose not printed, one month
Description: (§1) C57BL/6JNR male mice at 6 weeks of age (purchased from National Laboratory Animal Center) were fed with normal diet for 1 week. Each of the mice was injected intraperitoneally with 240 mg/kg nicotinamide, and after 15 minutes, each of the mice was injected intraperitoneally with 100 mg/kg streptozotocin. Two days later, each of the mice was injected with nicotinamide and streptozotocin with the same dosages and method as shown above, followed by feeding with the high fat diet (60% fat). Two months later, the mice having fasting blood glucose higher than 140 mg/dl and impaired glucose tolerance (which meant that the blood glucose values were not measured within normal range after injecting glucose for 2 hours) were picked to be type 2 diabetes mice.
(§2) The mice were divided into 4 groups which included a control group (supplied with phosphate solution), a metformin (Met) group, a composition A1 with low dose (4 mg/kg/day) group, and a composition A1 with high dose (12 mg/kg/day) group. The weights of the mice were measured every 3 days, and the blood glucose values, oral glucose tolerance assay (OGTT), glycated hemoglobin (HbA1c) and insulin variances of the mice were measured every 4 weeks.
(§3) The blood glucose values were measured with a Chemistry Analyzer (Hitachi, Ltd., Japan). […] The insulin variance was measured with enzyme-linked immunosorbent assay (ELISA) (Mercodia, Ltd. Sweden).

[2] = tested on: type 2 diabetes mice (nicotinamide/streptozotocin + high fat diet); test: Oral glucose tolerance assay (OGTT) in drug-induced diabetic mice; conditions: metformin group, dose not given
Description: as §1, §2, §3

[3] = tested on: type 2 diabetes mice (nicotinamide/streptozotocin + high fat diet); test: Glycated hemoglobin (HbA1c) of drug-induced diabetic mice; conditions: dose not printed, one month
Description: as §1, §2, §3

[4] = tested on: type 2 diabetes mice (nicotinamide/streptozotocin + high fat diet); test: HOMA-IR index of drug-induced diabetic mice; conditions: dose not printed, one month
Description: as §1, §2
The index of homeostasis model assessment for insulin resistance (HOMA-IR) was calculated from the following formula:
HOMA-IR index=insulin (μU/ml)×glucose (mmol/L)/22.5.

[5] = tested on: type 2 diabetes mice (nicotinamide/streptozotocin + high fat diet); test: Insulin (ELISA) of drug-induced diabetic mice; conditions: dose not printed, one month
Description: as §1, §2, §3

Row | SMILES | Fasting blood glucose [1] | glucose tolerance (OGTT) [2] | Glycated hemoglobin (HbA1c) [3] | HOMA-IR [4] | HOMA-IR ([4]; listed as metformin) | insulin [5]
1 | CN(C)C(=N)N=C(N)N [Metformin] | 169.00 ± 10.77 | improved | 3.57 ± 0.04 | 4.53 ± 1.42 | 4.53 | 11.11 ± 6.47
2 | NCC(=O)O [Glycine] | 182.88 ± 11.20 |  | 3.71 ± 0.03 | 5.23 ± 1.73 |  | 12.47 ± 2.36
